Test results taken from ChEMBL document CHEMBL4765464, “Discovery of BMS-986144, a Third-Generation, Pan-Genotype NS3/4A Protease Inhibitor for the Treatment of Hepatitis C Virus Infection” (J Med Chem, 2020).

What was measured:
[1] = Inhibition of recombinant full length NS3/4A protease in Hepatitis C virus subtype 3a replicon infected in human HuH7 cells preincubated for 3 days followed by substrate addition and measured after 2 hrs by renilla luciferase reporter gene assay; format: cell-based; conditions: Huh-7
[2] = Clearance in rat at 5 mg/kg, po or 1 mg/kg, iv; format: ADME, organism-based; conditions: in vivo
[3] = Oral bioavailability in cynomolgus monkey at 3 mg/kg; format: ADME, organism-based, Macaca fascicularis; conditions: in vivo
[4] = Toxicity in rat assessed as effect on cardiovascular system by telemetry; conditions: in vivo
[5] = molecular target: T1, Cytochrome P450 3A4 (Homo sapiens, UniProt P08684); assay: Inhibition of human CYP3A4 in human pooled liver microsomes at 0.002 to 40 uM in presence of testosterone as substrate preincubated in presence of NADPH followed by addition of substrate by LC-MS/MS analysis; format: ADME; conditions: TDE = time-dependent effect, dose 0.002-40 µM, time <=30 min
T1 sequence (P08684 whole entry): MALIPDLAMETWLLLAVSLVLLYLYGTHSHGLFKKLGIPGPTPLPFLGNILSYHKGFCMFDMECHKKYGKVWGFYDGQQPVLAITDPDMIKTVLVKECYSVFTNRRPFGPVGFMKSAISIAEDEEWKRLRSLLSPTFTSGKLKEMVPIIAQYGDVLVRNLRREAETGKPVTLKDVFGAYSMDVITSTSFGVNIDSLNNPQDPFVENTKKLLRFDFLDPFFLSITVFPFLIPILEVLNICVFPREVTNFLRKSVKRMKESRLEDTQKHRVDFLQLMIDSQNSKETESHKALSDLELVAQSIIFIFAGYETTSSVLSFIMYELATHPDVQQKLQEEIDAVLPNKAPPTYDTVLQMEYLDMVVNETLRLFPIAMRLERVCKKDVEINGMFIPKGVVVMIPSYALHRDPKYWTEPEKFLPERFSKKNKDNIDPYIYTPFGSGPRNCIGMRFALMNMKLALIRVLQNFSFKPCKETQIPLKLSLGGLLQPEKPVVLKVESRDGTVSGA

[6] = Toxicity in rabbit assessed as effect on cardiovascular system by telemetry; set-up: species or system Oryctolagus cuniculus; conditions: in vivo
[7] = molecular target: T1, Cytochrome P450 3A4; assay: Inhibition of human CYP3A4 in human pooled liver microsomes in presence of testosterone as substrate preincubated for 30 mins in presence of NADPH followed by addition of substrate by LC-MS/MS analysis; format: ADME
[8] = Inhibition of recombinant full length NS3/4A D168V mutant protease in Hepatitis C virus subtype 1b replicon infected in human HuH7 cells preincubated for 3 days followed by substrate addition and measured after 2 hrs by renilla luciferase reporter gene assay; format: cell-based; conditions: Huh-7
[9] = Cytotoxicity against human MT2 cells assessed as reduction in cell viability; format: cell-based
[10] = molecular target: T1, Cytochrome P450 3A4; assay: Inhibition of human CYP3A4 in human pooled liver microsomes in presence of midazolam as substrate preincubated for 30 mins in presence of NADPH followed by addition of substrate by LC-MS/MS analysis; format: ADME
[11] = Clearance in cynomolgus monkey at 3 mg/kg, po or 1 mg/kg, iv; format: ADME, organism-based, Macaca fascicularis; conditions: in vivo
[12] = Drug concentration in rat plasma at 5 mg/kg, po measured upto 24 hrs; format: ADME, organism-based; conditions: read-out: Ct
[13] = Half-life in rat at 5 mg/kg, po or 1 mg/kg, iv; format: ADME, organism-based; conditions: in vivo
[14] = AUC in cynomolgus monkey at 3 mg/kg, po or 1 mg/kg, iv; format: ADME, organism-based, Macaca fascicularis; set-up: dose 3 mg/kg; conditions: in vivo
[15] = Clearance in dog at 3 mg/kg, po or 1 mg/kg, iv; format: ADME, organism-based, Canis lupus familiaris; conditions: in vivo
[16] = AUC in rat at 5 mg/kg, po or 1 mg/kg, iv; format: ADME, organism-based; set-up: dose 5 mg/kg; conditions: in vivo
[17] = molecular target: T1, Cytochrome P450 3A4; assay: […] of CYP3A4 in human liver microsome in presence of midazolam as substrate preincubated for upto 30 mins in presence of NADPH followed by addition of substrate by LC-MS/MS analysis; format: ADME; conditions: microsomes
[18] = molecular target: T1, Cytochrome P450 3A4; assay: Inhibition of human CYP3A4 in human pooled liver microsomes in presence of midazolam as substrate preincubated for 0 mins in presence of NADPH followed by addition of substrate by LC-MS/MS analysis; format: ADME
[19] = Drug concentration in rat liver at 5 mg/kg, po measured upto 24 hrs; format: ADME, organism-based; conditions: read-out: Ct
[20] = Genotoxicity in Salmonella typhimurium by AMES test; format: toxicity; conditions: salmonella enterica subsp. enterica serovar typhimurium
[21] = Inhibition of recombinant full length NS3/4A R155K mutant protease in Hepatitis C virus subtype 1a replicon infected in human HuH7 cells preincubated for 3 days followed by substrate addition and measured after 2 hrs by renilla luciferase reporter gene assay; format: cell-based; conditions: Huh-7
[22] = Half-life in dog at 3 mg/kg, po or 1 mg/kg, iv; format: ADME, organism-based, Canis lupus familiaris; conditions: in vivo
[23] = Oral bioavailability in dog at 3 mg/kg; format: ADME, organism-based, Canis lupus familiaris; conditions: in vivo
[24] = molecular target: T1, Cytochrome P450 3A4; assay: Inhibition of human CYP3A4 in human pooled liver microsomes in presence of testosterone as substrate preincubated for 0 mins in presence of NADPH followed by addition of substrate by LC-MS/MS analysis; format: ADME
[25] = Toxicity in rat assessed as histopathological changes measured upto 4 days; conditions: in vivo, 96 h, time <=4 day
[26] = tested on: CHO; assay: Genotoxicity in Chinese Hamster CHO cells assessed as non clastogenicity by micronucleus assay; format: toxicity, cell-based, Cricetulus griseus
[27] = Inhibition of recombinant full length NS3/4A protease in Hepatitis C virus subtype 2a replicon infected in human HuH7 cells preincubated for 3 days followed by substrate addition and measured after 2 hrs by renilla luciferase reporter gene assay; format: cell-based; conditions: Huh-7
[28] = Cytotoxicity against human Huh-7 cells assessed as reduction in cell viability; format: cell-based
[29] = Toxicity in rat assessed as clinical effect measured upto 4 days; conditions: in vivo, 96 h, time <=4 day
[30] = Drug concentration in dog plasma at 3 mg/kg, po measured upto 24 hrs; format: ADME, organism-based, Canis lupus familiaris; conditions: read-out: Ct
[31] = AUC in dog at 3 mg/kg, po or 1 mg/kg, iv; format: ADME, organism-based, Canis lupus familiaris; set-up: dose 3 mg/kg; conditions: in vivo
[32] = Inhibition of recombinant full length NS3/4A protease in Hepatitis C virus subtype 1b replicon infected in human HuH7 cells preincubated for 3 days followed by substrate addition and measured after 2 hrs by renilla luciferase reporter gene assay; format: cell-based; conditions: Huh-7
[33] = Inhibition of recombinant full length NS3/4A protease in Hepatitis C virus subtype 3a infected in human HuH7 cells using Ac-Asp-Glu-Asp (EDANS)-Glu-Glu-Abu-(COO) Ala-Ser-Lys (DABCYL)-NH2 as substrate by FRET assay; conditions: Huh-7
[34] = Metabolic stability in human liver microsomes assessed as half-life incubated for 5 to 45 mins in presence of NADPH by LC-MS analysis; format: ADME, Microsome; conditions: time 5-45 min
[35] = Inhibition of recombinant full length NS3/4A protease in Hepatitis C virus subtype 1a replicon infected in human HuH7 cells preincubated for 3 days followed by substrate addition and measured after 2 hrs by renilla luciferase reporter gene assay; format: cell-based; conditions: Huh-7
[36] = Oral bioavailability in rat at 5 mg/kg; format: ADME, organism-based; conditions: in vivo
[37] = Half-life in cynomolgus monkey at 3 mg/kg, po or 1 mg/kg, iv; format: ADME, organism-based, Macaca fascicularis; conditions: in vivo
[38] = molecular target: T1, Cytochrome P450 3A4; assay: Inhibition of human CYP3A4 in human pooled liver microsomes at 0.002 to 40 uM in presence of midazolam as substrate preincubated in presence of NADPH followed by addition of substrate by LC-MS/MS analysis; format: ADME; conditions: TDE = time-dependent effect, dose 0.002-40 µM, time <=30 min
[39] = Ratio of drug concentration in liver to plasma in rat at 15 mg/kg, po measured upto 24 hrs; format: ADME, organism-based; conditions: liver and plasma
[40] = Drug concentration in rat plasma at 15 mg/kg, po measured upto 24 hrs; format: ADME, organism-based; conditions: read-out: Ct
[41] = Oral bioavailability in rat at 15 mg/kg; format: ADME, organism-based; conditions: in vivo
[42] = Drug concentration in rat liver at 15 mg/kg, po measured upto 24 hrs; format: ADME, organism-based; conditions: read-out: Ct
[43] = Clearance in rat at 5 mg/kg, iv; format: ADME, organism-based; conditions: in vivo
[44] = Half life in rat at 5 mg/kg, iv; format: ADME, organism-based; conditions: in vivo
[45] = Metabolic stability in rat liver microsomes assessed as parent compound remaining after 10 mins in presence of NADPH by LC-MS analysis; format: ADME, Microsome; conditions: read-out: Stabilty
[46] = AUC (0 to 24 hrs) in rat at 15 mg/kg, po; format: ADME, organism-based; set-up: time < 24 hr, route oral, dose 15 mg/kg; conditions: in vivo
[47] = Volume of distribution in rat at 15 mg/kg, po or 5 mg/kg, iv; format: ADME, organism-based; conditions: in vivo
[48] = Cmax in rat at 15 mg/kg, po; format: ADME, organism-based; set-up: route oral, dose 15 mg/kg; conditions: in vivo
[49] = Toxicity in rat assessed as reduction in blood pressure at 30 to 100 mg/kg; format: organism-based; conditions: in vivo, dose 30-100 mg/kg
[50] = Drug concentration in cynomolgus monkey plasma at 3 mg/kg, po measured upto 24 hrs; format: ADME, organism-based, Macaca fascicularis; conditions: read-out: Ct
[51] = Ratio of drug concentration in liver to plasma in rat at 5 mg/kg, po measured upto 24 hrs; format: ADME, organism-based; conditions: liver and plasma
[52] = Half life in rat at 1 mg/kg, iv; format: ADME, organism-based; conditions: in vivo
[53] = AUC (0 to 24 hrs) in rat at 5 mg/kg, po; format: ADME, organism-based; set-up: time < 24 hr, route oral, dose 5 mg/kg; conditions: in vivo
[54] = Toxicity in rat assessed as increase in heart rate at 30 to 100 mg/kg; format: organism-based; conditions: in vivo, dose 30-100 mg/kg
[55] = Cmax in rat at 5 mg/kg, po; format: ADME, organism-based; set-up: route oral, dose 5 mg/kg; conditions: in vivo
[56] = Clearance in rat at 1 mg/kg, iv; format: ADME, organism-based; conditions: in vivo
[57] = Toxicity in rat assessed as histopathological changes in liver at 100 mg/kg; format: organism-based; conditions: in vivo

Row | Compound | EC50 [1] [nM] | clearance [2] [mL/min/kg] | bioavailability [3] [%] | EC50 [8] [nM] | clearance [11] [mL/min/kg] | concentration at 24 h [12] [nM] | half-life [13] [h] | AUC [14] [µM·h] | clearance [15] [mL/min/kg] | AUC [16] [µM·h] | concentration at 24 h [19] [nM] | EC50 [21] [nM] | half-life [22] [h] | bioavailability [23] [%] | EC50 [27] [nM] | concentration at 24 h [30] [nM] | EC50 [32] [nM] | IC50 [33] [nM] | half-life [34] [h] | EC50 [35] [nM] | further results
1 | [2H]C([2H])([2H])Oc1cc2ccnc(O[C@@H]3C[C@H]4C(=O)N[C@]5(C(=O)NS(=O)(=O)C6(C)CC6)C[C@H]5/C=C\CC[C@@H](C)C[C@@H](CC)[C@H](NC(=O)OC(C)(C)C(F)(F)F)C(=O)N4C3)c2cc1F | 12 | 0.18 | 23.9 | 5.8 | 12.1 | 3850 | 13.4 | 0.19 | 1.1 | 310 | 4160 | 8 | 8.7 | 71 | 1 | 163 | 0.7 | 4.8 | 0.55 | 2.3 | Activity [4]: Non-Toxic; inhibition (INH) [5]: Tde; Activity [6]: Non-Toxic; IC50 [7]: > 33000 nM; CC50 [9]: 34000 nM; IC50 [10]: 16400 nM; Activity [17]: Not Active; IC50 [18]: > 40000 nM; Activity [20]: Non-Toxic; IC50 [24]: > 40000 nM; Activity [25]: Non-Toxic; Activity [26]: Non-Toxic; CC50 [28]: 25000 nM; Activity [29]: Non-Toxic; AUC [31]: 39.8 µM·h; bioavailability [36]: 57%; half-life [37]: 1.2 h; inhibition (INH) [38]: Tde
2 | COc1cnc(O[C@@H]2C[C@H]3C(=O)N[C@]4(C(=O)NS(=O)(=O)C5CC5)C[C@H]4/C=C\CC[C@@H](C)C[C@@H](C)[C@H](NC(=O)OC(C)(C)C(F)(F)F)C(=O)N3C2)c2ccccc12 | 2 | – | – | 5.5 | – | – | – | – | – | – | – | 2.2 | – | – | 0.8 | – | 0.5 | 0.9 | 0.198 | 0.5 | Kp at 24 h [39]: 34; concentration at 24 h [40]: 14 nM; bioavailability [41]: 15%; concentration at 24 h [42]: 480 nM; clearance [43]: 4.2 mL/min/kg; half-life [44]: 2.7 h; remaining at 10 min [45]: 95%; AUC(0-t) at 24 h [46]: 11.7 µM·h; Vd [47]: 0.58 L/kg; Cmax [48]: 1780 nM
3 | CC[C@@H]1C[C@H](C)CC/C=C\[C@@H]2C[C@@]2(C(=O)NS(=O)(=O)C2(C)CC2)NC(=O)[C@@H]2C[C@@H](Oc3ncc(OC)c4ccc(F)cc34)CN2C(=O)[C@H]1NC(=O)OC(C)(C)C(F)(F)F | 15 | 1.2 | 28 | 9 | 5.5 | 422 | 7.9 | 2.9 | 0.6 | 37 | 2070 | 7.6 | 11.3 | 67 | 2 | 709 | 0.6 | 8.4 | 0.717 | 2.3 | Activity [49]: Toxic; concentration at 24 h [50]: 13 nM; Kp at 24 h [51]: 5; half-life [52]: 7.9 h; AUC(0-t) at 24 h [53]: 32.5 µM·h; Activity [54]: Toxic; Cmax [55]: 3610 nM; AUC [31]: 71 µM·h; clearance [56]: 1.2 mL/min/kg; bioavailability [36]: 47%; half-life [37]: 2.8 h; Activity [57]: Non-Toxic
